# Test results published in patent publication US7524860B2, “Antibacterial agents” (Pfizer Inc., priority 2004, dated 2009).
# Where two headings read alike, the source gives them in different places.
# Test system: Neisseria gonorrhoeae, GC525 (NG-2888)
# Experiment: in-vitro antibacterial activity, microbroth dilution MIC susceptibility testing
# Assay type: cell-based
# Design: unit: ug/mL
# Settings: microbroth dilution in gonococcal broth, 20-24 hours at 35 C, lowest concentration preventing visible growth
# How it was run: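 Broth microdilution in gonococcal broth, inoculum ~5×10^5 cfu/mL, 20-24 h at 35 C in humidified CO2; compounds from 2 mg/mL DMSO stocks over 64-0.06 and 1-0.001 ug/mL two-fold series. MIC is the lowest concentration preventing visible growth, read visually; duplicates differing one well give the lower value, two wells the middle value.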
# [1] = Neisseria gonorrhoeae, read-out: MIC
Compound,MIC [1] [µg/mL],MIC [µg/mL]
"CCNC(=O)Nc1nc2cc(-c3cccc(Cl)c3)cc(C(=O)NCC)n2n1 [Example 67, 7-(3-Chloro-phenyl)-2-(3-ethyl-ureido)-[1,2,4]triazolo[1,5-a]pyridine-5-carboxylic acid ethylamide]",1,–
"7-(2-Dimethylamino-pyrimidin-5-yl)-2-(3-isopropyl-ureido)-imidazo[1,2-a]pyridine-5-carboxylic acid ethylamide [Example 117]",–,>64.0
"CCNC(=O)c1cc(-c2cccnc2)cc2nc(NS(C)(=O)=O)nn12 [Example 147, 2-N-Methylsulfonylamino-7-pyridin-3-yl-[1,2,4]triazolo[1,5-a]pyridin-5-carboxylic acid ethyl amide]",–,4.00
"CCNC(=O)Nc1nc2cc(-c3ccc(OC)nc3)cc(C(=O)NCC)n2n1 [Example 96, 2-(3-Ethyl-ureido)-7-(6-methoxy-pyridin-3-yl)-[1,2,4]triazolo[1,5-a]pyridine-5-carboxylic acidethylamide]",2,–
CCNC(=O)Nc1nc2cc(-c3cccnc3)cc(-c3nnc(C(C)C)o3)n2n1 [Example 29],–,>64.0
"CCNC(=O)Nc1nc2cc(-c3cccnc3)cc(N3CCNCC3)n2n1 [Example 146, 1-Ethyl-3-(5-piperazin-1-yl-7-pyridin-3-yl-[1,2,4]triazolo[1,5-a]pyridin-2-yl)-urea]",32,–
"CCNC(=O)Nc1nc2cc(-c3cccnc3)cc(C(=O)Nc3nccs3)n2n1 [Example 50, 2-(3-Ethyl-ureido)-7-pyridin-3-yl-[1,2,4]triazolo[1,5-a]pyridine-5-carboxylic acidthiazol-2-ylamide]",2,–
"CCNC(=O)Nc1nc2cc(-c3ccc(C)cc3)cc(C(=O)NCC)n2n1 [Example 68, 2-(3-Ethyl-ureido)-7-p-tolyl-[1,2,4]triazolo[1,5-a]pyridine-5-carboxylic acid ethylamide]",2,–
"CCNC(=O)Nc1nc2cc(-c3cccnc3)cc(-c3cnco3)n2n1 [Example 22, N-Ethyl-N′-[5-(1,3-oxazol-5-yl)-7-pyridin-3-yl[1,2,4]triazolo[1,5-a]pyridin-2-yl]urea]",0.5,–
"CCCC(=NOC)c1cc(-c2cccnc2)cc2nc(NC(=O)NCC)nn12 [Example 112, 1-Ethyl-3-[5-(1-methoxyimino-butyl)-7-pyridin-3-yl-[1,2,4]triazolo[1,5-a]pyridine-2-yl]-urea]",8,–
"CCNC(=O)Nc1nc2cc(-c3cccnc3)cc(-c3cnc(CC)s3)n2n1 [Example 123, 1-Ethyl-3-[5-(2-ethyl-thiazol-5-yl)-7-pyridin-3-yl-[1,2,4]triazolo[1,5-a]pyridin-2-yl]-urea]",> 64,–
"CCNC(=O)Nc1nc2cc(-c3cccnc3)cc(C(=O)N3CCCC3C)n2n1 (centres unmarked) [Example 77, 1-Ethyl-3-[5-(2-methyl-pyrrolidine-1-carbonyl)-7-pyridin-3-yl-[1,2,4]triazolo[1,5-a]pyridin-2-yl]-urea]",1,–
"1-(5-Cyclopropylaminomethyl-7-pyridin-3-yl-imidazo[1,2-a]pyridin-2-yl)-3-ethyl-urea [Example 114]",–,32.0
"CCNC(=O)Nc1nc2cc(-c3ccc(F)c(C)c3)cc(C(=O)NCC)n2n1 [Example 53, 2-(3-Ethyl-ureido)-7-(4-fluoro-3-methyl-phenyl)-[1,2,4]triazolo[1,5-a]pyridine-5-carboxylic acid ethylamide]",16,–
"CCNC(=O)c1cc(-c2cccnc2)cc2nc(NS(=O)(=O)CC)nn12 [Example 151, 2-N-ethylsulfonylamino-7-pyridin-3-yl-[1,2,4]triazolo[1,5-a]pyridin-5-carboxylic acid ethyl amide]",–,32.0
"CCNC(=O)Nc1nc2cc(-c3ccc4c(c3)CCO4)cc(C(=O)NCC)n2n1 [Example 57, 7-(2,3-Dihydro-benzofuran-5-yl)-2-(3-ethyl-ureido)-[1,2,4]triazolo[1,5-a]pyridine-5-carboxylic acid ethylamide]",2,–
"CCNC(=O)Nc1nc2cc(-c3cc(C)c(OC)c(C)c3)cc(C(=O)NCC)n2n1 [Example 103, 2-(3-Ethyl-ureido)-7-(4-methoxy-3,5-dimethyl-phenyl)-[1,2,4]triazolo[1,5-a]pyridine-5-carboxylic acid ethylamide]",> 64,–
"CCNC(=O)Nc1nc2cc(-c3cccnc3)cc(C(=O)NCc3ccc(OC)c(OC)c3)n2n1 [Example 106, 2-(3-Ethyl-ureido)-7-pyridin-3-yl-[1,2,4]triazolo[1,5-a]pyridine-5-carboxylic acid 3,4-dimethoxy-benzylamide]",> 64,–
"CCNC(=O)Nc1nc2cc(-c3cccnc3)cc(NC3CCN(C)CC3)n2n1 [Example 152, 1-Ethyl-3-[5-(1-methyl-piperidin-4-ylamino)-7-pyridin-3-yl[1,2,4]triazolo[1,5-a]pyridin-2-yl]-urea]",8,–

Compound,MIC [1] [µg/mL],MIC [µg/mL]
"CCNC(=O)Nc1nc2cc(-c3cncnc3)ccn2n1 [Example 5, 1-Ethyl-3-(7-pyrimidin-5-yl-[1,2,4]triazolo[1,5-a]pyridin-2-yl)-urea]",64,–
"CCNC(=O)Nc1nc2cc(-c3cccnc3)cc(-c3oc(C)nc3C)n2n1 [Example 148, N-[5-(2,4-Dimethyl-1,3-oxazol-5-yl)-7-pyridin-3-yl[1,2,4]triazolo[1,5-a]pyridin-2-yl]-N′-ethylurea]",4,–
"CCNC(=O)Nc1nc2cc(-c3ccccc3OC)cc(C(=O)NCC)n2n1 [Example 54, 2-(3-Ethyl-ureido)-7-(2-methoxy-phenyl)-[1,2,4]triazolo[1,5-a]pyridine-5-carboxylic acid ethylamide]",> 64,–
"CCNC(=O)Nc1nc2cc(-c3cccnc3)cc(-c3cncn3C)n2n1 [Example 136, N-ethyl-N′-[5-(1-methyl-1H-imidazol-5-yl]-7-pyridin-3-yl[1,2,4]triazolo[1,5-a]pyridin-2-yl]urea]",4,–
"CCNC(=O)Nc1nc2cc(-c3cccnc3)cc(C(=O)NCc3cnccc3C(F)(F)F)n2n1 [Example 87, 2-(3-Ethyl-ureido)-7-pyridin-3-yl-[1,2,4]triazolo[1,5-a]pyridine-5-carboxylic acid(4-trifluoromethyl-pyridin-3-ylmethyl)-amide]",8,–
"CCNC(=O)Nc1nc2cc(-c3cccnc3)cc(C(=O)N(C)Cc3nnc(C)o3)n2n1 [Example 51, 2-(3-Ethyl-ureido)-7-pyridin-3-yl-[1,2,4]triazolo[1,5-a]pyridine-5-carboxylic acid methyl-(5-methyl-[1,3,4]oxadiazol-2-ylmethyl)-amide]",64,–
"CCNC(=O)Nc1nc2cc(-c3cccnc3OC)cc(C(=O)NCC)n2n1 [Example 31, 2-(3-Ethyl-ureido)-7-(2-methoxy-pyridi-3-yl)-[1,2,4]triazolo[1,5-a]pyridine-5-carboxylic acid ethyl amide]",–,8.00
"CCNC(=O)Nc1nc2cc(-c3cccnc3)cc(-c3cnc(C(C)C)s3)n2n1 [Example 140, 1-Ethyl-3-[5-(2-i-propyl-thiazol-5-yl)-7-pyridin-3-yl-[1,2,4]triazolo[1,5-a]pyridin-2-yl]-urea]",64,–
"CCNC(=O)Nc1nc2cc(-c3ccc(C(C)(C)C)cc3)cc(C(=O)NCC)n2n1 [Example 58, 7-(4-tert-Butyl-phenyl)-2-(3-ethyl-ureido)-[1,2,4]triazolo[1,5-a]pyridine-5-carboxylic acid ethylamide]",2,–
CCNC(=O)Nc1nc2cc(-c3cnc(N(C)C)nc3)cc(-c3nnc(CC(C)C)s3)n2n1 [Example 30],–,>64.0
"CCCC(=O)c1cc(-c2cccnc2)cc2nc(NC(=O)NCC)nn12 [Example 108, 1-(5-Butyryl-7-pyridin-3-yl-[1,2,4]triazolo[1,5-a]pyridine-2-yl)-3-ethyl-urea]",2,–
"CCNC(=O)Nc1nc2cc(-c3cccnc3)cc(C(=O)NC3CCC3)n2n1 [Example 75, 2-(3-Ethyl-ureido)-7-pyridin-3-yl-[1,2,4]triazolo[1,5-a]pyridine-5-carboxylic acid cyclobutylamide]",2,–
"CCNC(=O)Nc1nc2cc(-c3cccnc3)cc(C(C)=O)n2n1 [Example 26, N-(5-Acetyl-7-pyridin-3-yl[1,2,4]triazolo[1,5-a]pyridin-2-yl)-N′-ethylurea]",1,–
"CCNC(=O)Nc1nc2cc(-c3cccnc3)cc(-c3nnc(CC(C)=O)o3)n2n1 [Example 28, 1-Ethyl-3-{5-[5-(2-oxo-propyl)-[1,3,4]oxadiazol-2-yl]-7-pyridin-3-yl-[1,2,4]triazolo[1,5-a]pyridin-2-yl}-urea]",> 64,–
"CCNC(=O)Nc1nc2cc(-c3cccnc3)cc(C(=O)N(C)Cc3ncccc3C)n2n1 [Example 89, 2-(3-Ethyl-ureido)-7-pyridin-3-yl-[1,2,4]triazolo[1,5-a]pyridine-5-carboxylic acid methyl-(3-methyl-pyridin-2-yl-methyl)-amide]",8,–
"CCNC(=O)Nc1nc2cc(-c3cccnc3)cc(C(=O)NCCCN)n2n1 [Example 107, 2-(3-Ethyl-ureido)-7-pyridin-3-yl-[1,2,4]triazolo[1,5-a]pyridine-5-carboxylic acid (3-amino-propyl)-amide]",> 64,–
"CCNC(=O)Nc1nc2cc(-c3cccc(C)c3)cc(C(=O)NCC)n2n1 [Example 52, 2-(3-Ethyl-ureido)-7-m-tolyl-[1,2,4]triazolo[1,5-a]pyridine-5-carboxylic acid ethylamide]",4,–
"CCNC(=O)Nc1nc2cc(-c3ccc(C)nc3C)cc(C(=O)NCC)n2n1 [Example 35, 7-(2,6-Dimethyl-pyridin-3-yl)-2-(3-ethyl-ureido)-[1,2,4]triazolo[1,5-a]pyridine-5-carboxylic acid ethyl amide]",8,–
"CCNC(=O)Nc1nc2cc(-c3cccnc3)cc(-c3cccnc3)n2n1 [Example 126, 1-(5,7-Di-pyridin-3-yl-[2,4]triazolo[1,5-a]pyridin-2-yl)-3-ethyl-urea]",–,16.0
